In this experiment the test system is LDLR mRNA expression in HepG2 cells. As to the kind of experiment: LDLR mRNA expression in HepG2 cells, quantitative real-time RT-PCR (Example 7). Particulars: dose less than or equal to 10 μM, 24 hours. It counts as cell-based, human. The method, then: In yet another experiment, HepG2 cells were treated with various compounds for 24 hours at the indicated doses. Total RNA was isolated and 2 μg was used to generate cDNA in a reaction containing random primers and M-MLV at 37° C. for 1 hour in a volume of 25 μL. Real-time PCR was performed on the cDNA using MCEP REALPLEX 2 SYSTEM (Eppendorf) and Universal MasterMix (Applied Biosystems). Human LDLR and GAPDH Pre-Developed TaqMan Assay Reagents (Applied Biosystems) were used to assess the levels of mRNA expressions in HepG2. The levels of LDLR mRNA were normalized to that of GAPDH. Each RNA samples was assayed in triplicate. The abundance of LDLR mRNA in untreated cells was defined as 1, and the amounts of LDLR mRNA from compound-treated cells were plotted relative to that value in FIG. 2B. The data shown are mean±s.d.
Activities of some compounds of Formulas I, II and EE on LDLR mRNA expression were determined. HepG2 cells were treated with new compounds individually at a dose less than or equal to 10 μM for 24 hours. […] In these experiments, berberine chloride was included for comparison.
(Real-time PCR tracks product formation cycle by cycle.)
With `COc1ccc2c(c1OS(=O)(=O)c1ccc(-c3ccccc3)cc1)CN1CCc3cc4c(cc3C1C2)OCO4` (stereo not shown) [Compound 37, 10-methoxy-5,6,7,8,13,13a-hexahydro-2H-1,3-dioxolano[4,5-g]isoquinolino[3,2-a]isoquinolin-9-yl 4-phenylbenzenesulfonate], the “Activity on LDLR mRNA expression (Fold of control)” value (“Activity … (Fold of control)” for short) is recorded as 2.47 ± 0.07 Fold of control.
Under `CCOC(=O)Oc1c(OC)ccc2c1CN1CCc3cc4c(cc3C1C2)OCO4` (stereo not shown) [Compound 48, 10-methoxy-5,6,7,8,13,13a-hexahydro-2H-1,3-dioxolano[4,5-g]isoquinolino[3,2-a]isoquinolin-9-yl ethoxyformate] stands 1.45 ± 0.15 Fold of control; under `COc1ccc2c(c1OS(=O)(=O)c1ccccc1F)CN1CCc3cc4c(cc3C1C2)OCO4` (stereo not shown) [Compound 51, 10-methoxy-5,6,7,8,13,13a-hexahydro-2H-1,3-dioxolano[4,5-g]isoquinolino[3,2-a]isoquinolin-9-yl 2-fluorobenzenesulfonate], 3.79 ± 0.33 Fold of control; under `COc1ccc2c(c1OS(=O)(=O)c1cccc(F)c1)CN1CCc3cc4c(cc3C1C2)OCO4` (stereo not shown) [Compound 52, 10-methoxy-5,6,7,8,13,13a-hexahydro-2H-1,3-dioxolano[4,5-g]isoquinolino[3,2-a]isoquinolin-9-yl 3-fluorobenzenesulfonate], 3.63 ± 0.17 Fold of control.
Under `COc1ccc2c(c1OS(=O)(=O)c1ccc(F)c(F)c1)CN1CCc3cc4c(cc3C1C2)OCO4` (stereo not shown) [Compound 53, 10-methoxy-5,6,7,8,13,13a-hexahydro-2H-1,3-dioxolano[4,5-g]isoquinolino[3,2-a]isoquinolin-9-yl 3,4-difluorobenzenesulfonate] stands 3.96 ± 0.40 Fold of control; under `COc1ccc2c(c1OS(=O)(=O)c1ccc(C)cc1)CN1CCc3cc4c(cc3C1C2)OCO4` (stereo not shown) [Compound 57, 10-methoxy-5,6,7,8,13,13a-hexahydro-2H-1,3-dioxolano[4,5-g]isoquinolino[3,2-a]isoquinolin-9-yl 4-methylbenzenesulfonate], 2.62 ± 0.17 Fold of control; under `COc1ccc2c(c1OS(=O)(=O)c1ccc(F)cc1)CN1CCc3cc4c(cc3C1C2)OCO4` (stereo not shown) [Compound 58, 10-methoxy-5,6,7,8,13,13a-hexahydro-2H-1,3-dioxolano[4,5-g]isoquinolino[3,2-a]isoquinolin-9-yl 4-fluorobenzenesulfonate], 3.90 ± 0.01 Fold of control.
Under `COc1ccc2c(c1OS(=O)(=O)c1ccc(F)cc1F)CN1CCc3cc4c(cc3C1C2)OCO4` (stereo not shown) [Compound 59, 10-methoxy-5,6,7,8,13,13a-hexahydro-2H-1,3-dioxolano[4,5-g]isoquinolino[3,2-a]isoquinolin-9-yl 2,4-difluorobenzenesulfonate] stands 3.73 ± 0.10 Fold of control; under `COc1ccc2c(c1OS(=O)(=O)c1cccc(C)c1)CN1CCc3cc4c(cc3C1C2)OCO4` (stereo not shown) [Compound 60, 10-methoxy-5,6,7,8,13,13a-hexahydro-2H-1,3-dioxolano[4,5-g]isoquinolino[3,2-a]isoquinolin-9-yl 3-methylbenzenesulfonate], 3.46 ± 0.75 Fold of control.
Take `COc1ccc2c(c1OC(=O)Nc1ccccc1)CN1CCc3cc4c(cc3C1C2)OCO4` (stereo not shown) [Compound 61, (10-methoxy(5,6,7,8,13,13a-hexahydro-2H-1,3-dioxolano[4,5-g]isoquinolino[3,2-a]isoquinolin-9-yloxy))-N-benzamide]: the “Activity … (Fold of control)” value is 1.33 ± 0.53 Fold of control.
The same measure for `COc1ccc2c(c1OS(=O)(=O)c1cccc([N+](=O)[O-])c1)CN1CCc3cc4c(cc3C1C2)OCO4` (stereo not shown) [Compound 63, 10-methoxy-5,6,7,8,13,13a-hexahydro-2H-1,3-dioxolano[4,5-g]isoquinolino[3,2-a]isoquinolin-9-yl 3-nitrobenzenesulfonate]: 2.94 ± 0.13 Fold of control; for `COc1cc2c(cc1OC)C1Cc3ccc(OC)c(OCc4ccccc4)c3CN1CC2` (stereo not shown) [Compound 64, 2,3,10-trimethoxy-9-(phenylmethoxy)-5,6,7,8,13,13a-hexahydroisoquinolino[3,2-a]isoquinoline]: 2.82 ± 0.45 Fold of control; for `COc1ccc2c(c1OS(=O)(=O)c1ccc([N+](=O)[O-])cc1)CN1CCc3cc4c(cc3C1C2)OCO4` (stereo not shown) [Compound 65, 10-methoxy-5,6,7,8,13,13a-hexahydro-2H-1,3-dioxolano[4,5-g]isoquinolino[3,2-a]isoquinolin-9-yl 4-nitrobenzenesulfonate]: 2.58 ± 0.46 Fold of control.
Under `COc1ccc2c(c1OS(=O)(=O)c1cccc3cccnc13)CN1CCc3cc4c(cc3C1C2)OCO4` (stereo not shown) [Compound 66, 10-methoxy-5,6,7,8,13,13a-hexahydro-2H-1,3-dioxolano[4,5-g]isoquinolino[3,2-a]isoquinolin-9-yl quinoline-8-sulfonate] stands 2.54 ± 0.06 Fold of control; under `COc1ccc2c(c1OS(=O)(=O)c1ccc(C(F)(F)F)cc1)CN1CCc3cc4c(cc3C1C2)OCO4` (stereo not shown) [Compound 85, 9-(4-trifluoromethyl-benzenesulfonyloxy)-10-methoxy-5,8,13,13a-tetrahydro-6H-[1,3]dioxolo[4,5-g]isoquino[3,2-a]isoquinoline], 1.42 ± 0.30 Fold of control; under `COc1ccc(S(=O)(=O)Oc2c(OC)ccc3c2CN2CCc4cc5c(cc4C2C3)OCO5)cc1OC` (stereo not shown) [Compound 86, 9-(3,4-dimethoxy-benzenesulfonyloxy)-10-methoxy-5,8,13,13a-tetrahydro-6H-[1,3]dioxolo[4,5-g]isoquino[3,2-a]isoquinoline], 2.48 ± 0.62 Fold of control.
The same measure for `COc1ccc2c(c1OCCN1CCOCC1)CN1CCc3cc4c(cc3C1C2)OCO4` (stereo not shown) [Compound 88, 9-O-2-(1′-morpholine-ethyl)-10-methoxy-5,8,13,13a-tetrahydro-6H-[1,3]dioxolo[4,5-g]isoquino[3,2-a]isoquinoline]: 1.93 ± 0.24 Fold of control.
Regarding `COc1ccc2c(c1OS(=O)(=O)c1cccc3c(N(C)C)cccc13)CN1CCc3cc4c(cc3C1C2)OCO4` (stereo not shown) [Compound 89, 10-methoxy-5,6,7,8,13,13a-hexahydro-2H-1,3-dioxolano [4,5-g]isoquinolino[3,2-a] isoquinolin-9-yl 5-(dimethylamino)naphthalene-sulfonate], the “Activity … (Fold of control)” value is 1.92 ± 0.40 Fold of control.
Take `COc1ccc2c(c1OS(=O)(=O)C(F)(F)F)CN1CCc3cc4c(cc3C1C2)OCO4` (stereo not shown) [Compound 90, 10-methoxy-5,6,7,8,13,13a-hexahydro-2H-1,3-dioxolano[4,5-g] isoquinolino[3,2-a] isoquinolin-9-yl (trifluoromethyl)sulfonate]: the “Activity … (Fold of control)” value was 1.21 ± 0.07 Fold of control.
Under `COc1ccc2c(c1)CN1CCc3cc4c(cc3C1C2)OCO4` (stereo not shown) [Compound 92, 10-methoxy-5,6,7,8,13,13a-hexahydro-2H-1,3-dioxolano[4,5-g]isoquinolino[3,2-a]isoquinoline] stands 1.52 ± 0.07 Fold of control; under `COc1ccc2c(c1OS(=O)(=O)c1sc(NC(C)=O)nc1C)CN1CCc3cc4c(cc3C1C2)OCO4` (stereo not shown) [Compound 93, 10-methoxy-5,6,7,8,13,13a-hexahydro-2H-1,3-dioxolano [4,5-g]isoquinolino[3,2-a]isoquinolin-9-yl 2-(acetylamino)-4-methyl-1,3-thiazole-5-sulfonate], 1.42 ± 0.16 Fold of control.
Under `COc1ccc2c(c1Oc1ncc([N+](=O)[O-])cc1C)CN1CCc3cc4c(cc3C1C2)OCO4` (stereo not shown) [Compound 94, 10-methoxy-9-(3-methyl-5-nitro(2-pyridyl)oxy)-5,6,7,8,13,13a-hexahydro-2H-1,3-dioxolano[4,5-g]isoquinolino[3,2-a]isoquinoline] stands 1.22 ± 0.18 Fold of control; under `COc1cc2c(cc1OCc1ccccc1)CCN1Cc3c(ccc(OC)c3OS(=O)(=O)c3ccccc3)CC21` (stereo not shown) [Compound 95, 2,10-dimethoxy-3-(phenylmethoxy)-5,6,7,8,13,13a-hexahydroisoquinolino[2,1-b]isoquinolin-9-yl benzenesulfonate], 1.43 ± 0.04 Fold of control.
Under `COc1ccc2c(c1Oc1ccc([N+](=O)[O-])cn1)CN1CCc3cc4c(cc3C1C2)OCO4` (stereo not shown) [Compound 96, 10-methoxy-9-(5-nitro(2-pyridyl)oxy)-5,6,7,8,13,13a-hexahydro-2H-1,3-dioxolano [4,5-g]isoquinolino[3,2-a]isoquinoline] stands 1.33 ± 0.05 Fold of control; under `COc1ccc2c(c1Oc1ncc(N)cc1C)CN1CCc3cc4c(cc3C1C2)OCO4` (stereo not shown) [Compound 100, 6-(10-methoxy(5,6,7,8,13,13a-hexahydro-2H-1,3-dioxolano[4,5-g]isoquinolino[3,2-a]isoquinolin-9-yloxy))-5-methyl-3-pyridylamine], 1.44 ± 0.59 Fold of control.

The record behind these values is patent US20110009628A1, “Compounds and Compositions for Modulating Lipid Levels and Methods of Preparing Same” (priority 2009, published 2011).
